Tests used:
VEGFR-2 = VEGFR-2 (Homo sapiens, UniProt P35968); assay: standard known kinase inhibition assay, VEGFR-2; format: biochemical
Text: (§1) Experimental studies have shown that a metabolite of the compound 3-Z-[1-(4-(N-((4-methyl-piperazin-1-yl)-methylcarbonyl)-N-methyl-amino)-anilino)-1-phenyl-methylene]-6-methoxycarbonyl-2-indolinone-monoethanesulphonate is the de-esterified 3-Z-[1-(4-(N-((4-methyl-piperazin-1-yl)-carbonyl)-N-methyl-amino)-anilino)-1-phenyl-methylene]-6-carboxy-2-indolinone. The in-vitro inhibitory activity of this metabolite on several kinases has been evaluated, using standard known kinase inhibition assays as well as a standard known cellular proliferation inhibition assay (inhibition of the proliferation of Human Umbilical Cord Endothelial Cells stimulated by the VEGF, the so-called “HUVEC cellular assay”). These experimental results have shown that this metabolite inhibits several kinases, such as VEGFR-2, VEGFR-3, Her-2, FGFR-1, PDGFR-alpha or InsR, as well as the proliferation of HUVEC VEGF stimulated cells.

VEGFR-3 = VEGFR-3 (Homo sapiens, UniProt P35916); assay: standard known kinase inhibition assay, VEGFR-3; format: biochemical
Chain of VEGFR-3 (P35916 25-1363, species assumed): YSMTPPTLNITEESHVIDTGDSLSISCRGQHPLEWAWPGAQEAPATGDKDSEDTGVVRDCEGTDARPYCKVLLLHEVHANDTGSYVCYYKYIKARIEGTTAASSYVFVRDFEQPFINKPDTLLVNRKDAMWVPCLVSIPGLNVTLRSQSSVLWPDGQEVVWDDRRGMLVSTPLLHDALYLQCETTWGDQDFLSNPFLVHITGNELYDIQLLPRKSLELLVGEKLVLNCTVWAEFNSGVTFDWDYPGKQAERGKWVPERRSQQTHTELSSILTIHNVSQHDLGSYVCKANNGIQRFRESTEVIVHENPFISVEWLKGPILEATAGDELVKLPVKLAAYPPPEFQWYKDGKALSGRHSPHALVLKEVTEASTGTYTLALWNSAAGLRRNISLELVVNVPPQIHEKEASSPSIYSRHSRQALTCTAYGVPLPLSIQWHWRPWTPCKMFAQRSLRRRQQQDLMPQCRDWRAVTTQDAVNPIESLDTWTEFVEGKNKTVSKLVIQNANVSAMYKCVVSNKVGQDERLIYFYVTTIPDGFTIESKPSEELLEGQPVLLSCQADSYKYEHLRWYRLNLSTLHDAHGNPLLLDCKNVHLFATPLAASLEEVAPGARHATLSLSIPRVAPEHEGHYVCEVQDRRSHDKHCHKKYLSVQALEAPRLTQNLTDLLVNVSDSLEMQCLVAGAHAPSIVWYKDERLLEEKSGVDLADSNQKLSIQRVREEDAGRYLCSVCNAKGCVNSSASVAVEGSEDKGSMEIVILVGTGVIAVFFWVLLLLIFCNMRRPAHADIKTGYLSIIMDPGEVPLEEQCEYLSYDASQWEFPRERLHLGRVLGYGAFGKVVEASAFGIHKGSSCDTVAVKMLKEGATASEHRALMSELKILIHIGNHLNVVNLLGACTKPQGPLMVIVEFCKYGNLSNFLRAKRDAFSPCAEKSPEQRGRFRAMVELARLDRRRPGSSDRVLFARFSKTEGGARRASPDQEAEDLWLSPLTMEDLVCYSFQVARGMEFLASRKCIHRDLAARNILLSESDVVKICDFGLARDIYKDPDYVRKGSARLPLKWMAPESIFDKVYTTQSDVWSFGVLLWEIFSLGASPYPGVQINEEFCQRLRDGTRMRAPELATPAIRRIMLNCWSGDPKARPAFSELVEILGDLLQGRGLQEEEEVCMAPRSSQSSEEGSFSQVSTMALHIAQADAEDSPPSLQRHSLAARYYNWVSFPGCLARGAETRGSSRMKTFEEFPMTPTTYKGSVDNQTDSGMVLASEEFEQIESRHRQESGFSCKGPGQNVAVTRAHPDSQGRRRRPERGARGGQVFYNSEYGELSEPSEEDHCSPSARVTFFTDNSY
Text: as §1

Her-2 = Her-2 (Homo sapiens, UniProt P04626); assay: standard known kinase inhibition assay, Her-2; format: biochemical
Chain of Her-2 (P04626 23-1255, species assumed): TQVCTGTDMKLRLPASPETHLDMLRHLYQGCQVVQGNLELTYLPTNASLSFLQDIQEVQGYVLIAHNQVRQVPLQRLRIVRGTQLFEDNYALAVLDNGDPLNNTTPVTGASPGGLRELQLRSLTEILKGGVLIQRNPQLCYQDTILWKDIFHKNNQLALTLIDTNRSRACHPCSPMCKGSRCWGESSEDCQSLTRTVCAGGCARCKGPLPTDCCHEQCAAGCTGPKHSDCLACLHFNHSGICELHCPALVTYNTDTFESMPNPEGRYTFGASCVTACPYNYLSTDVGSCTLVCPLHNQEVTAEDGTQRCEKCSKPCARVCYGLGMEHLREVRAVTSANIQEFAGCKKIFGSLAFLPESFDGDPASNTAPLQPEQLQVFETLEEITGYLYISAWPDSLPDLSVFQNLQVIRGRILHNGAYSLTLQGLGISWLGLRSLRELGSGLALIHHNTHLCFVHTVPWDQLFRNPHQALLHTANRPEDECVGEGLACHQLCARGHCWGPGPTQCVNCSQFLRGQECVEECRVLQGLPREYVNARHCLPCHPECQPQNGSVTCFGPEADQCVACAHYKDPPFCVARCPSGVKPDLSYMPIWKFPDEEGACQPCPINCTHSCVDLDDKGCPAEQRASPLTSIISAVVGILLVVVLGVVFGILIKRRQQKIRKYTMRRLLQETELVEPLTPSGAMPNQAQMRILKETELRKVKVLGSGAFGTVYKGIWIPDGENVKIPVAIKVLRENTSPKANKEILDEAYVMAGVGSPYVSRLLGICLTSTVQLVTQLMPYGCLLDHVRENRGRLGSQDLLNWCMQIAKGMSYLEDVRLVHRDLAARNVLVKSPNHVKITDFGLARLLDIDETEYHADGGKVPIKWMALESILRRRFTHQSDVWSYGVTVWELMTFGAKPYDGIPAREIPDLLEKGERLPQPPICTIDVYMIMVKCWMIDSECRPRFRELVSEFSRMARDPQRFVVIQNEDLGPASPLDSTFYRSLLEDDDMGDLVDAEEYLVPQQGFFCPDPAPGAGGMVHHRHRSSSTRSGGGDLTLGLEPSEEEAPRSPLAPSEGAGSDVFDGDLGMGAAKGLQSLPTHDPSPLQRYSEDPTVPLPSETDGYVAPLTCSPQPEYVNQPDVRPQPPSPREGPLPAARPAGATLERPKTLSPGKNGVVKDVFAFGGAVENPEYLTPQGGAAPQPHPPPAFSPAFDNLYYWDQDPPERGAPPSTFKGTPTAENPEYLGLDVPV
Text: as §1

FGFR-1 = FGFR-1 (Homo sapiens, UniProt P11362); assay: standard known kinase inhibition assay, FGFR-1; format: biochemical
Chain of FGFR-1 (P11362 22-822, species assumed): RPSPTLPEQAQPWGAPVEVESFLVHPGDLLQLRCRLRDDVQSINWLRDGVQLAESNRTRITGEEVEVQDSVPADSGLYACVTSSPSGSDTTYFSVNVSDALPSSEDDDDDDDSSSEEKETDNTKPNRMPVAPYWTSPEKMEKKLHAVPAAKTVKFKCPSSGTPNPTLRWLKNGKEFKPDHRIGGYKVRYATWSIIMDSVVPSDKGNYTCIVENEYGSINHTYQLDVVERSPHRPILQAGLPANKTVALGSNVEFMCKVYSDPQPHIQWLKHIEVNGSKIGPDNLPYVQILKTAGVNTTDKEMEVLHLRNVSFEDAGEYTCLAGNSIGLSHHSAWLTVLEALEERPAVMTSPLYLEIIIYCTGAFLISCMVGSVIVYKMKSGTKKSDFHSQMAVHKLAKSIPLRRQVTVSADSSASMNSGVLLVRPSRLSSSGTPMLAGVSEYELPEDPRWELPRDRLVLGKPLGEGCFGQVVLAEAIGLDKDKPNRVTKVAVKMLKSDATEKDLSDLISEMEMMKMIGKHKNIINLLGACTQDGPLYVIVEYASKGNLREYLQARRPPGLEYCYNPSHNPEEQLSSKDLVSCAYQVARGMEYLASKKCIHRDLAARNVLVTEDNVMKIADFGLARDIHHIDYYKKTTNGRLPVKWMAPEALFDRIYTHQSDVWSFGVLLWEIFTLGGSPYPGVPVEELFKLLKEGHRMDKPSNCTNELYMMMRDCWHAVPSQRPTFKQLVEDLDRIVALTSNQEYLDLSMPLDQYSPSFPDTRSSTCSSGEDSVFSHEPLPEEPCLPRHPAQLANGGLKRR
Text: as §1

PDGFR-alpha = PDGFR-alpha (Homo sapiens, UniProt P16234); assay: standard known kinase inhibition assay, PDGFR-alpha; format: biochemical
Chain of PDGFR-alpha (P16234 24-1089, species assumed): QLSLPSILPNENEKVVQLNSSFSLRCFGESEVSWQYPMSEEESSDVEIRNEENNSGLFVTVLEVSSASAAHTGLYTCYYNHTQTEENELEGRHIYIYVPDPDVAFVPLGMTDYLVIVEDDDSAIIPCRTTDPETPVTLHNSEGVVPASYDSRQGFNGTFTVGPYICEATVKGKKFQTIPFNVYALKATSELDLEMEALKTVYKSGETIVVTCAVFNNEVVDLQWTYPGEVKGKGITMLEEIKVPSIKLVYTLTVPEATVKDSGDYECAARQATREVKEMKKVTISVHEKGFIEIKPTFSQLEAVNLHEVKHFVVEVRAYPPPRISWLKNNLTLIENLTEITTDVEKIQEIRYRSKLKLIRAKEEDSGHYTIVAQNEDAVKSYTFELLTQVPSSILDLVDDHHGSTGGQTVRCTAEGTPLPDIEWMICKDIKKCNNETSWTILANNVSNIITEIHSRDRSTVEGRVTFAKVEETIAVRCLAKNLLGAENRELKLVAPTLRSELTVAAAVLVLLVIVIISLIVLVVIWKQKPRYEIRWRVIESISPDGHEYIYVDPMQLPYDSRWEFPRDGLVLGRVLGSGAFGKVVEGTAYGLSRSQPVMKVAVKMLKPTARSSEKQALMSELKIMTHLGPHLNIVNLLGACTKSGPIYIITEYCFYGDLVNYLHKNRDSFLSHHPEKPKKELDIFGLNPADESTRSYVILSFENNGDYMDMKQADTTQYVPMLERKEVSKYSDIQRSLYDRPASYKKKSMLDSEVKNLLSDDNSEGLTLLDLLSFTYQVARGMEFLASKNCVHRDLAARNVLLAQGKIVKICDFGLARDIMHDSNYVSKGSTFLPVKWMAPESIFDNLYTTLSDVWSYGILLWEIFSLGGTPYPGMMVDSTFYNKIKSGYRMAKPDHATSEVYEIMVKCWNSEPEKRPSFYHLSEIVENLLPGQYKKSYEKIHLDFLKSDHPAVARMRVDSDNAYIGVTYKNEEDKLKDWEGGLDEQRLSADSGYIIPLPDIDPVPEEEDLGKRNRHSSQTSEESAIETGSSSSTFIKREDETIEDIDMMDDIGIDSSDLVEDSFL
Text: as §1

InsR = InsR (Homo sapiens, UniProt P06213); assay: standard known kinase inhibition assay, InsR; format: biochemical
Text: as §1

[1] = tested on: Human Umbilical Cord Endothelial Cells stimulated by the VEGF; assay: HUVEC cellular assay (cellular proliferation inhibition); format: cell-based
Text: as §1

hygroscopicity = format: physicochemical
[2] = solubility in physiologically acceptable solvents; format: physicochemical
[3] = amorphisation during grinding and compression; format: physicochemical

Structure (SMILES)	in-vitro inhibitory activity on VEGFR-2 (VEGFR-2)	in-vitro inhibitory activity on VEGFR-3 (VEGFR-3)	in-vitro inhibitory activity on Her-2 (Her-2)	in-vitro inhibitory activity on FGFR-1 (FGFR-1)	in-vitro inhibitory activity on PDGFR-alpha (PDGFR-alpha)	in-vitro inhibitory activity on InsR (InsR)	inhibition of the proliferation of HUVEC VEGF stimulated cells [1]	hygroscopicity (hygroscopicity)	solubility [2]	amorphisation [3]
CN1CCN(C(=O)N(C)c2ccc(N/C(=C3\C(=O)Nc4cc(C(=O)O)ccc43)c3ccccc3)cc2)CC1 [3-Z-[1-(4-(N-((4-methyl-piperazin-1-yl)-carbonyl)-N-methyl-amino)-anilino)-1-phenyl-methylene]-6-carboxy-2-indolinone]	inhibits	inhibits	inhibits	inhibits	inhibits	inhibits	inhibits	–	–	–
CCS(=O)(=O)O.COC(=O)c1ccc2c(c1)NC(=O)/C2=C(\Nc1ccc(N(C)C(=O)CN2CCN(C)CC2)cc1)c1ccccc1 [monoethanesulphonate, 3-Z-[1-(4-(N-((4-methyl-piperazin-1-yl)-methylcarbonyl)-N-methyl-amino)-anilino)-1-phenyl-methylene]-6-methoxycarbonyl-2-indolinone-monoethanesulphonate]	–	–	–	–	–	–	–	not hygroscopic	readily soluble	low amorphisation
